Assay: mn = molality of the nth substance listed, in mol/kg
Conditions: 101 kPa, Liquid; for viscosity: Capillary tube (Ostwald / Ubbelohde) method; for mass density: Vibrating tube method

Cc1ccc(N)cc1N [4-methyl-1,3-benzendiamine] + CCCO
Conditions	mass density, 293.15 K [kg/m3]	mass density, 303.15 K [kg/m3]	mass density, 313.15 K [kg/m3]	mass density, 323.15 K [kg/m3]	mass density, 333.15 K [kg/m3]	viscosity, 293.15 K [mPa·s]	viscosity, 303.15 K [mPa·s]	viscosity, 313.15 K [mPa·s]	viscosity, 323.15 K [mPa·s]	viscosity, 333.15 K [mPa·s]
m1 = 0.05	805.47	797.13	788.94	780.57	771.96	2.189	1.71	1.348	1.074	0.864
m1 = 0.1003	807.05	798.71	790.49	782.12	773.5	2.206	1.723	1.354	1.079	0.868
m1 = 0.15	808.57	800.22	792.01	783.62	774.99	2.225	1.735	1.365	1.086	0.875
m1 = 0.1997	810.04	801.7	793.49	785.09	776.45	2.247	1.748	1.372	1.091	0.878
m1 = 0.2499	811.49	803.17	794.96	786.55	777.91	2.267	1.759	1.382	1.099	0.883
m1 = 0.2999	812.87	804.6	796.4	787.99	779.34	2.294	1.774	1.389	1.106	0.889
m1 = 0.3496	814.24	805.98	797.83	789.4	780.74	2.315	1.79	1.401	1.112	0.893
m1 = 0.3994	815.57	807.34	799.22	790.77	782.12	2.338	1.806	1.412	1.117	0.899

Cc1c(N)cccc1N [2,6-diaminotoluene] + CCO
Conditions	mass density, 293.15 K [kg/m3]	mass density, 303.15 K [kg/m3]	mass density, 313.15 K [kg/m3]	mass density, 323.15 K [kg/m3]	mass density, 333.15 K [kg/m3]	viscosity, 293.15 K [mPa·s]	viscosity, 303.15 K [mPa·s]	viscosity, 313.15 K [mPa·s]	viscosity, 323.15 K [mPa·s]	viscosity, 333.15 K [mPa·s]
m1 = 0.0503	791.34	782.75	773.98	765.05	755.93	1.193	0.983	0.814	0.68	0.569
m1 = 0.1002	793.1	784.49	775.72	766.78	757.66	1.206	0.991	0.823	0.686	0.573
m1 = 0.1497	794.82	786.2	777.43	768.49	759.36	1.221	1.002	0.829	0.69	0.578
m1 = 0.1996	796.54	787.9	779.12	770.18	761.05	1.233	1.011	0.835	0.696	0.582
m1 = 0.2496	798.23	789.59	780.81	771.86	762.72	1.245	1.021	0.843	0.7	0.586
m1 = 0.2997	799.92	791.26	782.49	773.53	764.4	1.258	1.03	0.849	0.707	0.591
m1 = 0.3496	801.55	792.9	784.13	775.18	766.04	1.272	1.04	0.857	0.711	0.595
m1 = 0.3995	803.2	794.53	785.77	776.81	767.67	1.286	1.05	0.864	0.718	0.6
m1 = 0.4497	804.84	796.16	787.4	778.43	769.3	1.3	1.061	0.872	0.723	0.604
m1 = 0.4995	806.45	797.75	789	780.03	770.89	1.313	1.07	0.879	0.731	0.609
m1 = 0.5495	808.02	799.33	790.56	781.61	772.46	1.328	1.08	0.888	0.736	0.613
m1 = 0.5995	809.61	800.9	792.14	783.18	774.03	1.342	1.09	0.895	0.742	0.618
m1 = 0.6492	811.1	802.44	793.67	784.72	775.55	1.357	1.102	0.903	0.746	0.622
m1 = 0.6984	812.63	803.98	795.19	786.23	777.07	1.372	1.112	0.91	0.753	0.626
m1 = 0.7488	814.15	805.51	796.73	787.77	778.61	1.389	1.124	0.919	0.758	0.631
m1 = 0.7991	815.68	807.02	798.25	789.3	780.13	1.408	1.134	0.926	0.762	0.636

Cc1c(N)cccc1N [2,6-diaminotoluene] + CCCO
Conditions	mass density, 293.15 K [kg/m3]	mass density, 303.15 K [kg/m3]	mass density, 313.15 K [kg/m3]	mass density, 323.15 K [kg/m3]	mass density, 333.15 K [kg/m3]	viscosity, 293.15 K [mPa·s]	viscosity, 303.15 K [mPa·s]	viscosity, 313.15 K [mPa·s]	viscosity, 323.15 K [mPa·s]	viscosity, 333.15 K [mPa·s]
m1 = 0.0501	805.5	797.18	789	780.63	772.03	2.19	1.709	1.348	1.074	0.864
m1 = 0.0997	807.1	798.78	790.58	782.21	773.6	2.209	1.72	1.355	1.079	0.869
m1 = 0.1498	808.7	800.36	792.16	783.77	775.16	2.226	1.734	1.365	1.086	0.874
m1 = 0.1995	810.26	801.92	793.7	785.32	776.68	2.245	1.744	1.372	1.092	0.878
m1 = 0.2499	811.81	803.46	795.23	786.83	778.21	2.268	1.759	1.383	1.099	0.883
m1 = 0.2994	813.34	804.95	796.73	788.33	779.69	2.282	1.77	1.391	1.106	0.888
m1 = 0.3496	814.83	806.45	798.21	789.79	781.15	2.305	1.789	1.401	1.112	0.893
